Here are results for 1 compound from publication PMC6934184, “Selective DNA-PKcs inhibition extends the therapeutic index of localized radiotherapy and chemotherapy” (The Journal of Clinical Investigation, 2019).

This assay addresses T1, FGFR1 V561M (Homo sapiens, UniProt P11362, V561M).
T1 construct: purchased Thermo Fisher Scientific (Life Technologies) SelectScreen
Briefly: SelectScreen LanthaScreen. It is filed as binding. As to conditions: read-out: % displacement. A digest of the protocol: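 SelectScreen broad panel; activity (Z'LYTE, Adapta) plus binding formats. ATP: Km app for CSF1R Z'LYTE; 10 for CAMK1 Adapta. Readout = % per kinase.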

T1 sequence (P11362 22-822 V561M): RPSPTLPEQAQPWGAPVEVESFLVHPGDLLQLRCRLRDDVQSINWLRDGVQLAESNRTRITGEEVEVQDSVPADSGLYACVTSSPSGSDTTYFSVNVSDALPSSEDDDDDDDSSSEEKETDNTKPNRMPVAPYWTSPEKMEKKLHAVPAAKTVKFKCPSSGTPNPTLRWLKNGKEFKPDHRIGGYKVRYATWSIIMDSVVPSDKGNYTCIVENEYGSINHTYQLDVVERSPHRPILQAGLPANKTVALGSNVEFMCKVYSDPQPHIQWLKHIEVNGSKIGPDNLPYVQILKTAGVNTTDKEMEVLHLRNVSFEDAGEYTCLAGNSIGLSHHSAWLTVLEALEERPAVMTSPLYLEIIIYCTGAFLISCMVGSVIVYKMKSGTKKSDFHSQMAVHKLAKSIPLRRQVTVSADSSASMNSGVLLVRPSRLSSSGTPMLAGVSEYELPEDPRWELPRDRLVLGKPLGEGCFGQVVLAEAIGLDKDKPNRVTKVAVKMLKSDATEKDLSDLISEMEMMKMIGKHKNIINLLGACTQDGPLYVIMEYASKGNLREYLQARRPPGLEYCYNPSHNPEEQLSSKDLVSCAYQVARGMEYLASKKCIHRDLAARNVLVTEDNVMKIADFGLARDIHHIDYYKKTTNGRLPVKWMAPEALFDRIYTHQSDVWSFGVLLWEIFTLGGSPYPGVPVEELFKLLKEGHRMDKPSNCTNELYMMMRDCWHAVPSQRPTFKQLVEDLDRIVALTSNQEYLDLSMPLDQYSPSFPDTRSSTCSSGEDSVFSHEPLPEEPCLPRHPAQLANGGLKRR

`CN(C(=O)CN1CCOCC1)c1ccc2sc3c(-c4cccc5c(=O)cc(N6CC7CCC(C6)O7)oc45)cccc3c2c1` [NU5455]: the inhibition at 1 µM was determined as 5.1%.
